Values joined by “and” are separate entries in the source; they are usually repeats but may differ in a detail not shown here. Equal values may be shown once. Read-outs that look alike come from different tables or passages of the source. No end group written: not given here.
Tests used:
[1] = biological target: T1, CRHR1 (Homo sapiens, UniProt P34998); assay: cAMP assay in h-CRHR1 transfected SK-N-MC cells; type: cell-based; design: expressed in transfected cells; conditions: for Experimental nH: Table 11, Hill slope
T1 sequence (P34998 24-415): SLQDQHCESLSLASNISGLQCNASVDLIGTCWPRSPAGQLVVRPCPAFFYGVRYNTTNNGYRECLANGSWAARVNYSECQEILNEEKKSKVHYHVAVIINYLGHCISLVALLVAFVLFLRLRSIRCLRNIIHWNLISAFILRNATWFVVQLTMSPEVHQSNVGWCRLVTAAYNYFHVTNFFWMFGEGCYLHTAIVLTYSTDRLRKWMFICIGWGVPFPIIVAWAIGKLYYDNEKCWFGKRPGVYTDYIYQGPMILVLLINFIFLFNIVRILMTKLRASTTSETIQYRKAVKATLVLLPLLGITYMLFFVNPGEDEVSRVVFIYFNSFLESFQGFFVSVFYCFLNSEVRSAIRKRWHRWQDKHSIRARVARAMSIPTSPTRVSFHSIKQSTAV
Method: Human CRHR1 (accession number X72304) or CRHR2 (accession number U34587) were cloned into pcDNA3.1/Zeo expression vector and stably transfected into SK-N-MC cells by electroporation. Cells were maintained in MEM w/Earl's Salt with 10% FBS, 50 I.U. penicillin, 50 μg/ml streptomycin, 2 mM L-glutamine, 1 mM sodium pyruvate and 0.1 mM nonessential amino acids, 600 μg/ml G418. Cells were grown at 37° C. in 5% CO2.
Cells were plated in 96-well tissue culture dishes (Biocoat from BD Biosciences) overnight at 50,000 cell/well. Cells were washed with PBS then resuspended in DMEM F-12 without phenol red, containing 10 μM isobutylmethylxanthine (IBMX). Cells were incubated with the peptides at concentrations ranging from 1 pM to 10 μM for 60 min at 37° Celsius. […] Forskolin (10 μM), a direct stimulant of adenylate cyclase, was used as positive control. The assays were stopped by the addition of 0.5 M HCl and mixing by orbital rotation for 2 h at 4° Celsius.
Transfected SK-N-MC cells were plated in 96-well Biocoat tissue culture dishes (BD Biosciences, San Jose, Calif., U.S.A) overnight at 50,000 cell/well. […]
Individual agonist concentration-response curve data were fitted to the Hill equation, see formula below, using GraphPad Prism (Graphpad Software, La Jolla, Calif., U.S.A.), to provide estimates of agonist concentration needed to generate one-half maximal response (A50), and the maximal asymptote (α) and Hill slope (nH) parameters. In this equation, [A] is the agonist concentration and E is the measured effect:
For display purposes the mean fitted parameter estimates were used to generate a single E/[A] curve shown superimposed on the mean experimental data. Potency estimates for agonists, pA50, are expressed as the negative logarithm of the midpoint of each curve and listed with their standard error of measurement (SEM).
Human and rat peptides (see Table 10) were used on the stimulation of h-CRHR1 or h-CRHR2 transfected SK-N-MC cells in the cAMP flash plate assay. […] Curves were calculated using non-linear regression sigmoidal concentration-response analysis calculation in GraphPad Prism.

[2] = biological target: T1, CRHR1; assay: Radioligand binding CRHR1 assay, [125I]-(Tyr0)-sauvagine; design: expressed in transfected cells; host or cells: cell membranes; conditions: Table 15; slope of competition curve
Method: The solution was then homogenized with a Polytron tissue grinder at a setting of 10 and 7×3 s (Brinkmann Instruments, Westbury, N.Y.). The homogenate was centrifuged at 4° Celsius at 800×g for 5 min with the pellet being discarded. […] All binding assays were conducted in 96-well Multiscreen GF/B filter plates (Millipore, Billericay, Mass., U.S.A.) that were pre-soaked in assay buffer with 0.3% PEI for 1 hour. […] The bound radioactivity was separated by filtration using a Multiscreen Resist manifold (Millipore Corp., Billerica, Mass., U.S.A). The filters were washed three times with ice-cold PBS at pH 7.5 and radioactivity retained on the filters was quantified by its liquid scintillation measured by a TopCount counter (Packard BioScience, Boston, Mass., U.S.A). All experiments were performed in triplicate.

[3] = biological target: T2, h-CRHR2b (Homo sapiens, UniProt Q13324); conditions: h-CRHR2b transfected HEK-293 cells, approximated from concentration response curves, Hsu et al. 2001; cited from earlier work
T2 sequence (Q13324 1-438 isoform Q13324-2): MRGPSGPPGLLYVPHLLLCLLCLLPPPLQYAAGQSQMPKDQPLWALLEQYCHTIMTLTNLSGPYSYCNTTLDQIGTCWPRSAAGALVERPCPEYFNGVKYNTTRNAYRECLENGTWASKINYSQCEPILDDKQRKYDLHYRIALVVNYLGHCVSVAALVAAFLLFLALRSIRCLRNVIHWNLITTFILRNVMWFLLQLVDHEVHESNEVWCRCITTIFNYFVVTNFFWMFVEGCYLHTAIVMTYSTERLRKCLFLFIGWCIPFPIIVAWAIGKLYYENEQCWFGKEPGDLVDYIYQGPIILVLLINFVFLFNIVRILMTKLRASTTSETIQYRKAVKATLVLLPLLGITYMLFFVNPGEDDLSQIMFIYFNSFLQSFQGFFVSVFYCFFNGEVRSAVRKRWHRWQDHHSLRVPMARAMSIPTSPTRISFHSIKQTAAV

[4] = test system: isolated rat aortic rings; assay: Vascular smooth muscle relaxation, isolated rat aortic rings pre-contracted with phenylephrine
Description: The ability of h-SCP (SEQ ID NO:1) to relax vascular smooth muscle was examined in isolated, rat aortic rings pre-contracted with phenylephrine (PE) (see FIG. 6). […] The responses caused by h-SCP (SEQ ID NO:1) were inhibited by anti-sauvagine-30 (SEQ ID NO:118).

[5] = test system: Langendorff perfused rabbit heart; assay: Retrograde-perfused Langendorff rabbit heart assay; conditions: bolus into the perfusion block
Method: The effect of h-SCP (SEQ ID NO:1) on heart rate (HR), left ventricular (LV) contraction, and vascular tone was assessed in a retrograde-perfused Langendorff rabbit heart assay.

Row | Experimental nH [1] | Experimental αmax ([1]; Table 11, maximal asymptote) | Experimental nH ([1]; listed as h-SRP) | Molecule | CRHR1 nH [2] | Published pA50 [3] | pA50 relaxation ([4]; rat aortic rings pre-contracted with phenylephrine) | fold less potent than h-UCN2 ([4]; relaxation of rat aortic rings) | EC50 ([5]; read-out: concentration for 50% response, decrease in coronary perfusion pressure (CPP)) | EC50 ([5]; read-out: concentration for 50% response, increase in heart rate) | EC50 ([5]; read-out: concentration for 50% response, increase in left ventricular developed pressure (dP/dtmax))
1 | 1.15 | 99.61 | – | CC[C@H](C)[C@H](NC(=O)[C@H](CO)NC(=O)[C@H](CC(C)C)NC(=O)[C@@H]1CCCN1C(=O)[C@@H]1CCCN1C(=O)[C@H](CC(=O)O)NC(=O)[C@@H](N)CC(=O)O)C(=O)N[C@@H](CC(=O)O)C(=O)N[C@@H](CC(C)C)C(=O)N[C@H](C(=O)N[C@@H](Cc1ccccc1)C(=O)N[C@@H](Cc1c[nH]cn1)C(=O)N[C@@H](CC(C)C)C(=O)N[C@@H](CC(C)C)C(=O)N[C@@H](CCCNC(=N)N)C(=O)N[C@H](C(=O)N[C@@H](CC(C)C)C(=O)N[C@@H](CC(C)C)C(=O)N[C@@H](CCC(=O)O)C(=O)N[C@@H](CC(C)C)C(=O)N[C@@H](C)C(=O)N[C@@H](CCCNC(=N)N)C(=O)N[C@H](C(=O)N[C@@H](CCC(N)=O)C(=O)N[C@@H](CO)C(=O)N[C@@H](CCC(N)=O)C(=O)N[C@@H](CCCNC(=N)N)C(=O)N[C@@H](CCC(=O)O)C(=O)N[C@@H](CCCNC(=N)N)C(=O)N[C@@H](C)C(=O)N[C@@H](CCC(=O)O)C(=O)N[C@@H](CCC(N)=O)C(=O)N[C@@H](CC(N)=O)C(=O)N[C@@H](CCCNC(=N)N)C(=O)N[C@H](C(=O)N[C@H](C(=O)N[C@@H](Cc1ccccc1)C(=O)N[C@@H](CC(=O)O)C(=O)N[C@@H](CO)C(=O)N[C@H](C(N)=O)C(C)C)[C@@H](C)CC)[C@@H](C)CC)[C@@H](C)O)[C@@H](C)O)[C@@H](C)O [SEQ ID NO: 114, DDPPLSIDLTFHLLRTLLELARTQSQRERAEQNRIIFDSV-NH2] | 0.91 ± 0.27 | – | – | – | – | – | –
2 | – | – | 1.61 and 1.33 and 1.26 | HPGSRIVLSLDVPIGLLQILLEQARARAAREQATTNARILARV-NH2 [SEQ ID NO: 117, HPGSRIVLSLDVPIGLLQILLEQARAPAAREQATTNARILARV-NH2, reference compound] | – | ~9^4 | – | – | – | – | –
3 | – | – | – | TKFTLSLDVPTNIMNLLFNIAKAKNLRAQAAANAHLMAQI-NH2 [SEQ ID NO: 1, TKFTLSLDVPTNIMNLLFNIAKAKNLRAQAAANAHLMAQI-NH2, reference compound] | 1.16 ± 0.65 | ~9^4 | 6.05±0.12 | 10 fold | 46 nM | 52 nM | 9.9 nM

— patent publication US10040838B2, “CRHR2 peptide agonists and uses thereof” (JANSSEN PHARMACEUTICA NV, priority 2008, dated 2018)
